Where only a bound is given, the exact number is not on record here.

The values that follow come from US9120804B2, “8-substituted 2-amino-[1,2,4] triazolo [1, 5-A] pyrazines as Syk tryrosine kinase inhibitors and GCN2 serin kinase inhibitors” (Merck Patent GmbH, priority 2012, dated 2015).

This test has as its target T1, SYK (Homo sapiens, UniProt P43405).
T1 construct: 2.5 nM SYK, 400 nM Biotin-Aha-Aha-KEDPDYEWPSAKK
Description: SYK flash plate assay (enzyme assay). Type of test: biochemical. The essentials: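 Radiometric Flashplate format: biotinylated peptide substrate (400 nM) and 33P-labelled ATP (10 μM) react with 2.5 nM enzyme for 1 hour at 30 °C in Hepes buffer, pH 7.5. After EDTA quench and washing, counts are taken; staurosporine defines non-specific signal, and IC50 values are derived.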
`CC1(C)C(=O)Nc2cc(Nc3nc4c(N5C[C@@H](O)C[C@@H]5c5cccc(F)c5)nccn4n3)ccc21` [E62, 6-{8-[(2R,4S)-2-(3-fluoro-phenyl)-4-hydroxy-pyrrolidin-1-yl]-[1,2,4]triazolo[1,5-a]pyrazin-2-ylamino}-3,3-dimethyl-1,3-dihydro-indol-2-one] came in with a 50% inhibitory concentration (IC50) of 300 to 3000 nM. The compound `Cn1cc(-c2nccn3nc(Nc4cc5c(cc4F)C(C)(C)CC(=O)N5)nc23)cn1` [E121, 6-fluoro-4,4-dimethyl-7-[8-(1-methyl-1H-pyrazol-4-yl)-[1,2,4]triazolo[1,5-a]pyrazin-2-ylamino]-3,4-dihydro-1H-quinolin-2-one] registered a 50% inhibitory concentration (IC50) of 300 to 3000 nM. Turning to `CC1(C)C(=O)Nc2cc(Nc3nc4c(-c5cnn(CCO)c5)nccn4n3)ccc21` [E145, 6-{8-[1-(2-hydroxy-ethyl)-1H-pyrazol-4-yl]-[1,2,4]triazolo[1,5-a]pyrazin-2-ylamino)-3,3-dimethyl-1,3-dihydro-indol-2-one], the concentration for half-maximal inhibition (IC50) was less than 100 nM. For `CC1(C)C(=O)Nc2cc(Nc3nc4c(N5C[C@@H](O)C[C@@H]5c5ccccc5)nccn4n3)ccc21` [E5, 6-[8-((2R,4S)-4-hydroxy-2-phenyl-pyrrolidin-1-yl)-[1,2,4]triazolo[1,5-a]pyrazin-2-ylamino]-3,3-dimethyl-1,3-dihydro-indol-2-one], the IC50 fell in the range of 100 to 300 nM. `CC1(C)C(=O)Nc2cc(Nc3nc4c(N5CCC6(C5)OCCO6)nccn4n3)ccc21` [E10, 6-[8-(1,4-dioxa-7-aza-spiro[4.4]non-7-yl)-[1,2,4]triazolo[1,5-a]pyrazin-2-ylamino]-3,3-dimethyl-1,3-dihydro-indol-2-one] registered a half-maximal inhibitory concentration (IC50) of 100 to 300 nM.

`COC(=O)C1CCN(c2nccn3nc(Nc4ccc5c(c4)NC(=O)C5(C)C)nc23)C1` (stereo not shown) [E2, 1-[2-(3,3-dimethyl-2-oxo-2,3-dihydro-1H-indol-6-ylamino)-[1,2,4]triazolo[1,5-a]pyrazin-8-yl]-pyrrolidine-3-carboxylic acid methyl ester] came in with an IC50 of less than 100 nM. Take `CC1(C)C(=O)Nc2cc(Nc3nc4c(N5CC6(CCNC6)c6cc(Cl)ccc65)nccn4n3)ccc21` (stereo not shown) [E130, 6-[8-(5-Chloro-spiro[indole-3,3′-pyrrolidin]-1-yl)-[1,2,4]triazolo[1,5-a]pyrazin-2-ylamino]-3,3-dimethyl-1,3-dihydro-indol-2-one]: the IC50 was in the range of 300 to 3000 nM. The compound `CC1(C)OC(C(F)(F)F)Nc2cc(Nc3nc4c(N5CCCCCC5)nccn4n3)ccc21` (stereo not shown) [E126, (8-azepan-1-yl-[1,2,4]triazolo[1,5-a]pyrazin-2-yl)-(4,4-dimethyl-2-trifluoromethyl-1,4-dihydro-2H-benzo[d][1,3]oxazin-7-yl)-amine] registered an IC50 of less than 100 nM. For the compound `COc1cc(Nc2nc3c(N4CCNC(c5ccccc5)C4)nccn3n2)cc(OC)c1` (stereo not shown) [C54, (3,5-dimethoxy-phenyl)-[8-(3-phenyl-piperazin-1-yl)-[1,2,4]triazolo[1,5-a]pyrazin-2-yl]-amine], the IC50 was 3000 to 50000 nM. In turn, `CC1(C)C(=O)Nc2cc(Nc3nc4c(N5CC[C@]6(CCNC6)C5)nccn4n3)ccc21` [E105, 6-[(S)-8-(2,7-diaza-spiro[4.4]non-2-yl)-[1,2,4]triazolo[1,5-a]pyrazin-2-ylamino]-3,3-dimethyl-1,3-dihydro-indol-2-one] had a half-maximal inhibitory concentration (IC50) of less than 100 nM. With `CC1(C)C(=O)Nc2cc(Nc3nc4c(-c5ccc6c(c5)OCCO6)nccn4n3)ccc21` [E142, 6-[8-(2,3-dihydro-benzo[1,4]dioxin-6-yl)-[1,2,4]triazolo[1,5-a]pyrazin-2-ylamino]-3,3-dimethyl-1,3-dihydro-indol-2-one], the IC50 was less than 100 nM. `CC1(C)C(=O)Nc2cc(Nc3nc4c(NCC5CCNCC5)nccn4n3)ccc21` [E91, 3,3-dimethyl-6-{8-[(piperidin-4-ylmethyl)-amino]-[1,2,4]triazolo[1,5-a]pyrazin-2-ylamino}-1,3-dihydro-indol-2-one] displayed an IC50 of less than 100 nM.

`CN(C)c1ccc(-c2nccn3nc(Nc4ccc5c(c4)NC(=O)C5(C)C)nc23)cn1` [E139, 6-[8-(6-dimethylamino-pyridin-3-yl)-[1,2,4]triazolo[1,5-a]pyrazin-2-ylamino]-3,3-dimethyl-1,3-dihydro-indol-2-one] registered an IC50 of less than 100 nM.

What is called IC50 is the midpoint of a concentration-inhibition curve.
